Measured values from patent US9452990B2, “Complement pathway modulators and uses thereof” (NOVARTIS AG, priority 2012, dated 2016).
Counter-ions that a name gives are not always drawn.

Target: human complement factor B (CVF-Bb complex) (Homo sapiens (Human), UniProt P00751)
Assay: Human Complement Factor B ELISA Assay
Assay type: biochemical
Conditions: not given
In short: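 Preformed CVF-Bb complex (3 nM; cobra venom factor with recombinant human factors B and D) preincubated with compound 1 h, RT, in PBS pH 7.4, 10 mM MgCl2, 0.05% CHAPS. Plasma C3 added at 1 μM final for 1 h, then stopped; C3a product measured by ELISA, IC50 from % inhibition.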

SMILES	IC50 [µM]
COc1cc2c(N)nc(N3CCN(C(=O)C[C@@H]4CCN4)C[C@@H]3c3ccccc3)nc2c(F)c1OC [Example 119, 1-[(S)-4-(4-Amino-8-fluoro-6,7-dimethoxy-quinazolin-2-yl)-3-phenyl-piperazin-1-yl]-2-(S)-azetidin-2-yl-ethanone hydrochloride]	0.61

Same assay, conditions: CVF-Bb complex 3 nM, 1 hour preincubation with compound at room temperature, human C3 substrate 1 μM, C3a quantified by ELISA; read-out: Factor B IC50

SMILES	IC50 [µM]
CC[C@H]1CN(C(=O)[C@@H]2CCc3ccccc3[C@@H]2N)CCN1c1nc(N)c2cc(OC)c(OC)c(F)c2n1 [Example 106, [(S)-4-(4-Amino-8-fluoro-6,7-dimethoxy-quinazolin-2-yl)-3-ethyl-piperazin-1-yl]-((1R,2R)-1-amino-1,2,3,4-tetrahydro-naphthalen-2-yl)-methanone]	2.66
COc1cc2c(N)nc(N3CCN(C(=O)[C@@H]4CCc5ccccc5[C@@H]4N)C[C@@H]3c3ccccc3)nc2c(F)c1OC [Example 107, [(S)-4-(4-Amino-8-fluoro-6,7-dimethoxy-quinazolin-2-yl)-3-phenyl-piperazin-1-yl]-((1R,2R)-1-amino-1,2,3,4-tetrahydro-naphthalen-2-yl)-methanone]	0.24
COc1cc2c(N)nc(N3CCN(C(=O)C[C@@H]4CCCN4CC(C)C)CC3)nc2c(F)c1OC [Example 108, (S)-1-(4-(4-amino-8-fluoro-6,7-dimethoxyquinazolin-2-yl)piperazin-1-yl)-2-(1-isobutylpyrrolidin-2-yl)ethanone]	0.17
COc1cc2c(N)nc(N3CCN(C(=O)C[C@@H]4CCN4)CC3)nc2c(F)c1OC [Example 109, 1-[4-(4-Amino-8-fluoro-6,7-dimethoxy-quinazolin-2-yl)-piperazin-1-yl]-2-(S)-azetidin-2-yl-ethanone]	4.27
COc1cc2c(N)nc(N3CCN(C(=O)C[C@@H]4CCCN4)CC3)nc2c(F)c1OC [Example 110, 1-[4-(4-Amino-8-fluoro-6,7-dimethoxy-quinazolin-2-yl)-piperazin-1-yl]-2-(S)-pyrrolidin-2-yl-ethanone]	0.14
COc1cc2c(N)nc(N3CCN(C(=O)C[C@@H]4CC[C@H](c5ccccc5)N4)CC3)nc2c(F)c1OC [Example 111, 1-[4-(4-Amino-8-fluoro-6,7-dimethoxy-quinazolin-2-yl)-piperazin-1-yl]-2-((2S,5R)-5-phenyl-pyrrolidin-2-yl)-ethanone]	0.38
COc1cc2c(N)nc(N3CCN(C(=O)CC4NCc5ccccc54)CC3)nc2c(F)c1OC (centres unmarked) [Example 112, 1-[4-(4-Amino-8-fluoro-6,7-dimethoxy-quinazolin-2-yl)-piperazin-1-yl]-2-(2,3-dihydro-1H-isoindol-1-yl)-ethanone]	0.35
COc1cc2c(N)nc(N3CCN(C(=O)C[C@@H]4CCCCN4)CC3)nc2c(F)c1OC [Example 113, 1-[4-(4-Amino-8-fluoro-6,7-dimethoxy-quinazolin-2-yl)-piperazin-1-yl]-2-(S)-piperidin-2-yl-ethanone]	0.23
COc1cc2c(N)nc(N3CCN(C(=O)C[C@@H]4CCCNC4)CC3)nc2c(F)c1OC [Example 114, 1-[4-(4-Amino-8-fluoro-6,7-dimethoxy-quinazolin-2-yl)-piperazin-1-yl]-2-(S)-piperidin-3-yl-ethanone]	3.87
COc1cc2c(N)nc(N3CCN(C(=O)C[C@@H]4CCCN4)C[C@@H]3C)nc2c(F)c1OC [Example 115, 1-[(S)-4-(4-Amino-8-fluoro-6,7-dimethoxy-quinazolin-2-yl)-3-methyl-piperazin-1-yl]-2-(S)-pyrrolidin-2-yl-ethanone]	0.32
CC[C@H]1CN(C(=O)C[C@@H]2CCCN2)CCN1c1nc(N)c2cc(OC)c(OC)c(F)c2n1 [Example 116, 1-[(S)-4-(4-Amino-8-fluoro-6,7-dimethoxy-quinazolin-2-yl)-3-ethyl-piperazin-1-yl]-2-(S)-pyrrolidin-2-yl-ethanone]	0.54
CC[C@H]1CN(C(=O)C[C@@H]2CCCCN2)CCN1c1nc(N)c2cc(OC)c(OC)c(F)c2n1 [Example 117, 1-[(S)-4-(4-Amino-8-fluoro-6,7-dimethoxy-quinazolin-2-yl)-3-ethyl-piperazin-1-yl]-2-(S)-piperidin-2-yl-ethanone]	0.78
CCC[C@H]1CN(C(=O)C[C@@H]2CCCN2)CCN1c1nc(N)c2cc(OC)c(OC)c(F)c2n1 [Example 118, 1-[(S)-4-(4-Amino-8-fluoro-6,7-dimethoxy-quinazolin-2-yl)-3-propyl-piperazin-1-yl]-2-(S)-pyrrolidin-2-yl-ethanone]	0.27
COc1cc2c(N)nc(N3CCN(C(=O)C[C@@H]4CCCN4)C[C@@H]3c3ccccc3)nc2c(F)c1OC [Example 120, 1-[(S)-4-(4-Amino-8-fluoro-6,7-dimethoxy-quinazolin-2-yl)-3-phenyl-piperazin-1-yl]-2-(S)-pyrrolidin-2-yl-ethanone]	0.08
COc1cc2c(N)nc(N3CCN(C(=O)C[C@@H]4CCCCN4)C[C@@H]3c3ccccc3)nc2c(F)c1OC [Example 121, 1-[(S)-4-(4-Amino-8-fluoro-6,7-dimethoxy-quinazolin-2-yl)-3-phenyl-piperazin-1-yl]-2-(S)-piperidin-2-yl-ethanone]	0.02
COc1cc2c(N)nc(N3CCN(C(=O)C[C@@H]4CCCNC4)C[C@@H]3c3ccccc3)nc2c(F)c1OC [Example 122, 1-[(S)-4-(4-Amino-8-fluoro-6,7-dimethoxy-quinazolin-2-yl)-3-phenyl-piperazin-1-yl]-2-(S)-piperidin-3-yl-ethanone]	0.2
COc1cc2c(N)nc(N3CCN(C(=O)CC4CNCCO4)C[C@@H]3c3ccccc3)nc2c(F)c1OC (stereo partly drawn) [Example 123, 1-[(S)-4-(4-Amino-8-fluoro-6,7-dimethoxy-quinazolin-2-yl)-3-phenyl-piperazin-1-yl]-2-morpholin-2-yl-ethanone]	0.89
COCCOc1c(OC)cc2c(N)nc(N3CCN(C(=O)C[C@@H]4CCCN4)CC3)nc2c1F [Example 124, 1-{4-[4-Amino-8-fluoro-6-methoxy-7-(2-methoxy-ethoxy)-quinazolin-2-yl]-piperazin-1-yl}-2-(S)-pyrrolidin-2-yl-ethanone]	5.95
COCCOc1c(OC)cc2c(N)nc(N3CCN(C(=O)C[C@@H]4CCCCN4)CC3)nc2c1F [Example 125, 1-{4-[4-Amino-8-fluoro-6-methoxy-7-(2-methoxy-ethoxy)-quinazolin-2-yl]-piperazin-1-yl}-2-(S)-piperidin-2-yl-ethanone]	9.95
COc1cc2c(N)nc(N3CCN(C(=O)C[C@@H]4CCCCN4)CC3)nc2c(C#N)c1OC [Example 126, (S)-4-Amino-6,7-dimethoxy-2-(4-(2-(piperidin-2-yl)acetyl)piperazin-1-yl)quinazoline-8-carbonitrile]	2.9
COc1cc2c(N)nc(N3CCN(C(=O)C[C@H]4NCCc5ccccc54)CC3)nc2c(F)c1OC [Example 127, 1-[4-(4-Amino-8-fluoro-6,7-dimethoxy-quinazolin-2-yl)-piperazin-1-yl]-2-(R)-1,2,3,4-tetrahydro-isoquinolin-1-yl-ethanone]	0.2
COc1cc2c(N)nc(N3CCN(C(=O)CC4NCCc5cc(F)ccc54)CC3)nc2c(F)c1OC (centres unmarked) [Example 128, 1-[4-(4-Amino-8-fluoro-6,7-dimethoxy-quinazolin-2-yl)-piperazin-1-yl]-2-(6-fluoro-1,2,3,4-tetrahydro-isoquinolin-1-yl)-ethanone]	0.12
